Reference: patent publication US9676782B2, “Substituted pyrazolo[1,5-a]pyrazines as negative allosteric modulators of metabotropic glutamate receptor 3” (Vanderbilt University, priority 2014, dated 2017)
Like-named read-outs stand apart in the source and are kept apart here.

Tests used:
rat mGlu3 = rat mGlu3 (Rattus norvegicus (Rat), UniProt P31422); experiment: mGlu3 Ca2+ flux assay; assay type: cell-based; conditions: for IC50: read-out: rat mGlu3 IC50; for remaining activity at 30 µM: amplitude of response at 30 μM test compound as % of maximal response to glutamate, read-out: rat mGlu3 Glu max (%)
Experimental: (§1) The cells were grown overnight at 37° C. in the presence of 5% CO2. […] Dye was removed, 20 μL of assay buffer was added, and the plate was incubated for 10 minutes at room temperature. Ca^2+ flux was measured using the Functional Drug Screening System (FDSS7000, Hamamatsu, Japan). […] All test compounds were dissolved and diluted to a concentration of 10 mM in 100% DMSO. […] Calcium fluorescence measures were recorded as fold over basal fluorescence; raw data was then normalized to the maximal response to glutamate. […] The raw data file containing all time points was used as the data source in the analysis template. This was saved by the FDSS as a tab-delimited text file. Data were normalized using a static ratio function (F/F0) for each measurement of the total 360 values per well divided by each well's initial value. […] This is sufficient time to capture the peak amplitude of the cellular calcium response. […] EC50 values for test compounds were generated by fitting the normalized values versus the log of the test compound concentration (in mol/L) using a 4 parameter logistic equation where none of the parameters were fixed. Each of the three values collected at each concentration of test compound were weighted evenly.

rat mGlu5 = rat mGlu5 (Rattus norvegicus (Rat), UniProt P31424); experiment: mGlu5 Ca2+ flux assay; assay type: cell-based; conditions: for Emax at 30 µM: PAM, amplitude of response at 30 μM test compound as % of maximal response to glutamate, read-out: rat mGlu5 Glu max (%); for Fold selectivity (mGlu3 vs. mGlu5): ratio of rat mGlu5 EC50 or IC50 to rat mGlu3 IC50; for EC50: read-out: rat mGlu5 EC50 or IC50
Experimental: as §1, with “for 5” for “for 10”

[1] = NAM potency, decrease of glutamate EC80 response, >30,000 = no measurable activity, >10,000 = no plateau

Chain of rat mGlu5 (P31424 21-1203): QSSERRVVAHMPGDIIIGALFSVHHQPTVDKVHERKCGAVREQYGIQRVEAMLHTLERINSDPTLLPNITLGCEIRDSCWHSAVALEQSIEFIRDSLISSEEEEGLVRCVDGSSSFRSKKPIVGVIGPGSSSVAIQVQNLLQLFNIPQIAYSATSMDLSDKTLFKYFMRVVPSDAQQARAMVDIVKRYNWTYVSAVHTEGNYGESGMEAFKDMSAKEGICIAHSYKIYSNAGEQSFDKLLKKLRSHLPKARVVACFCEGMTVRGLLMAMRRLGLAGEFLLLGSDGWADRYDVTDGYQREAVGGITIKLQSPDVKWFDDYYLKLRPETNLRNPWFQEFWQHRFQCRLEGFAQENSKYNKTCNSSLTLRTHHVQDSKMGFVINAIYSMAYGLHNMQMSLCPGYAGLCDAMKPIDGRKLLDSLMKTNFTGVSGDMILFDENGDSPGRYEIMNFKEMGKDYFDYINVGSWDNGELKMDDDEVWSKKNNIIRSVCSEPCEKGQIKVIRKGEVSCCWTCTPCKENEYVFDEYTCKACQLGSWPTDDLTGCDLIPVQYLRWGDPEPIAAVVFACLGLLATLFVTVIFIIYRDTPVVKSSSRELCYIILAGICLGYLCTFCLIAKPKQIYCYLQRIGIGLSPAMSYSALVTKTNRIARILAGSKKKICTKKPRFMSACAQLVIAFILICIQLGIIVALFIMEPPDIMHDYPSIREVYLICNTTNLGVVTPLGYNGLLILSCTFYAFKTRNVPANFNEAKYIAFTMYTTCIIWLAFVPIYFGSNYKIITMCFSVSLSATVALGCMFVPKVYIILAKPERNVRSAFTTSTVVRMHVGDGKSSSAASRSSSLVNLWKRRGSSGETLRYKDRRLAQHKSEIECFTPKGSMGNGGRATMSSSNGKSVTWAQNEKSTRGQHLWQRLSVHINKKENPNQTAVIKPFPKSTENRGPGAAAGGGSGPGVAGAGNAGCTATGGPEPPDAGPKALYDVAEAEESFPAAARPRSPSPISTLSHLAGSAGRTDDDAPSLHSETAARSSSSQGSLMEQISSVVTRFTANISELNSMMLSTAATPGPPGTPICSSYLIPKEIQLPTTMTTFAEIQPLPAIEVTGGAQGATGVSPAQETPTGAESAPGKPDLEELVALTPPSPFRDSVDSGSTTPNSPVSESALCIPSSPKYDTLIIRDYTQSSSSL
Chain of rat mGlu3 (P31422 23-879): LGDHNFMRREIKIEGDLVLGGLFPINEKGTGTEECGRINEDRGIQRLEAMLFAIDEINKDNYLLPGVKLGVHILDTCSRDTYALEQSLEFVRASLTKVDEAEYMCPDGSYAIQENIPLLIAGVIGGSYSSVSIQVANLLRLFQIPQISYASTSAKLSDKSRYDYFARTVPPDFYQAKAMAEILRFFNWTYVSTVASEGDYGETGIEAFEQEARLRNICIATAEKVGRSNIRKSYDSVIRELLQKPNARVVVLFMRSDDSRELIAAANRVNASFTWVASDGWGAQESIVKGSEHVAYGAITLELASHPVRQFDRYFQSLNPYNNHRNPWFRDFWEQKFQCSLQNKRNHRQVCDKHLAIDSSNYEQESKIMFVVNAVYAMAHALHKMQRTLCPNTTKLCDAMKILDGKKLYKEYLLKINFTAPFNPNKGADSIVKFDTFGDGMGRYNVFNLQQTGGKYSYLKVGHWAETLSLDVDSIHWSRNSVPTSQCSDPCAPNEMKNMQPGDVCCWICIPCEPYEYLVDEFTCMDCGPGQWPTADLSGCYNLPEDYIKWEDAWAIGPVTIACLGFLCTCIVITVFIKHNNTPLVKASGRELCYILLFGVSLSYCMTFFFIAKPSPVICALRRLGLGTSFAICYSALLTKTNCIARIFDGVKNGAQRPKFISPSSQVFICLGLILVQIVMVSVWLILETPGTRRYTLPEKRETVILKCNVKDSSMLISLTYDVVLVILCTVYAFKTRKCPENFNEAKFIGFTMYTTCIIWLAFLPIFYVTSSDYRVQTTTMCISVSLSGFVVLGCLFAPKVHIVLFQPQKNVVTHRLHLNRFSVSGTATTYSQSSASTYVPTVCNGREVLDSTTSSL

Structure (SMILES)	IC50 (rat mGlu3; [1]) [nM]	remaining activity at 30 µM (rat mGlu3) [%]	Emax at 30 µM (rat mGlu5) [%]	Fold selectivity (mGlu3 vs. mGlu5) (rat mGlu5)	EC50 (rat mGlu5) [nM]	IC50 (rat mGlu3) [nM]
Cc1ccc(NCc2cc3n(n2)CCN(c2ccc(F)cc2)C3=O)c(F)c1 [Compound 35, 2-(((2-fluoro-4-methylphenyl)amino)methyl)-5-(4-fluorophenyl)-6,7-dihydropyrazolo[1,5-a]pyrazin-4(5H)-one]	799	1.68	97.4	5.97	4770	
Cc1cc(NCc2cc3n(n2)CCN(c2ccc(F)cc2)C3=O)ccc1F [Compound 36, 2-(((4-fluoro-3-methylphenyl)amino)methyl)-5-(4-fluorophenyl)-6,7-dihydropyrazolo[1,5-a]pyrazin-4(5H)-one]	1670	1.91		>17	> 30000	
O=C1c2cc(CNc3ccc(OC(F)F)cc3F)nn2CCN1c1ccc(F)cc1 [Compound 37, 2-(((4-(difluoromethoxy)-2-fluorophenyl)amino)methyl)-5-(4-fluorophenyl)-6,7-dihydropyrazolo[1,5-a]pyrazin-4(5H)-one]		2.57	38.4	>29	> 10000	334
O=C1c2cc(CNc3ccc(OC(F)F)c(F)c3)nn2CCN1c1ccc(F)cc1 [Compound 38, 2-(((4-(difluoromethoxy)-3-fluorophenyl)amino)methyl)-5-(4-fluorophenyl)-6,7-dihydropyrazolo[1,5-a]pyrazin-4(5H)-one]	489	2.28	84.7	3.19	1560	
O=C1c2cc(CNc3ccc4c(c3)OC(F)(F)O4)nn2CCN1c1ccc(F)cc1 [Compound 39, 2-(((2,2-difluorobenzo[d][1,3]dioxol-5-yl)amino)methyl)-5-(4-fluorophenyl)-6,7-dihydropyrazolo[1,5-a]pyrazin-4(5H)-one]	2880	1.95	75.7	>3.4	> 10000	
C[C@@H]1CN(c2ccc(F)cc2)C(=O)c2cc(CNc3ccccc3)nn21 [Compound 40, (R)-5-(4-fluorophenyl)-7-methyl-2-((phenylamino)methyl)-6,7-dihydropyrazolo[1,5-a]pyrazin-4(5H)-one]	1380	5.15	34.4	3.49	4810	
C[C@H]1CN(c2ccc(F)cc2)C(=O)c2cc(CNc3ccccc3)nn21 [Compound 41, (S)-5-(4-fluorophenyl)-7-methyl-2-((phenylamino)methyl)-6,7-dihydropyrazolo[1,5-a]pyrazin-4(5H)-one]	8110	-2.27	81.7	0.17	1360	
C[C@@H]1CN(c2ccc(F)cc2)C(=O)c2cc(CNc3ccccc3F)nn21 [Compound 42, (R)-5-(4-fluorophenyl)-2-(((2-fluorophenyl)amino)methyl)-7-methyl-6,7-dihydropyrazolo[1,5-a]pyrazin-4(5H)-one]	871	0.89	71.4	>11	> 10000	
C[C@H]1CN(c2ccc(F)cc2)C(=O)c2cc(CNc3ccccc3F)nn21 [Compound 43, (S)-5-(4-fluorophenyl)-2-(((2-fluorophenyl)amino)methyl)-7-methyl-6,7-dihydropyrazolo[1,5-a]pyrazin-4(5H)-one]	2540	1.61	90.6	2.06	5230	
Cc1ccccc1NCc1cc2n(n1)[C@H](C)CN(c1ccc(F)cc1)C2=O [Compound 44, (R)-5-(4-fluorophenyl)-7-methyl-2-((o-tolylamino)methyl)-6,7-dihydropyrazolo[1,5-a]pyrazin-4(5H)-one]	2670	-0.26	23.9	>3.7	> 10000	
Cc1ccccc1NCc1cc2n(n1)[C@@H](C)CN(c1ccc(F)cc1)C2=O [Compound 45, (S)-5-(4-fluorophenyl)-7-methyl-2-((o-tolylamino)methyl)-6,7-dihydropyrazolo[1,5-a]pyrazin-4(5H)-one]	3340	1.32	37.1	>2.9	> 10000	
C[C@@H]1CN(c2ccc(F)cc2)C(=O)c2cc(CNc3cccc(F)c3)nn21 [Compound 46, (R)-5-(4-fluorophenyl)-2-(((3-fluorophenyl)amino)methyl)-7-methyl-6,7-dihydropyrazolo[1,5-a]pyrazin-4(5H)-one]		0.58	24.6	>8.2	> 10000	1210
C[C@H]1CN(c2ccc(F)cc2)C(=O)c2cc(CNc3cccc(F)c3)nn21 [Compound 47, (S)-5-(4-fluorophenyl)-2-(((3-fluorophenyl)amino)methyl)-7-methyl-6,7-dihydropyrazolo[1,5-a]pyrazin-4(5H)-one]		1.77	78.3	0.58	1070	1840
C[C@@H]1CN(c2ccc(F)cc2)C(=O)c2cc(CNc3cccc(Cl)c3)nn21 [Compound 48, (R)-2-(((3-chlorophenyl)amino)methyl)-5-(4-fluorophenyl)-7-methyl-6,7-dihydropyrazolo[1,5-a]pyrazin-4(5H)-one]		1.63	88.8	>6.0	> 10000	1650
C[C@H]1CN(c2ccc(F)cc2)C(=O)c2cc(CNc3cccc(Cl)c3)nn21 [Compound 49, (S)-2-(((3-chlorophenyl)amino)methyl)-5-(4-fluorophenyl)-7-methyl-6,7-dihydropyrazolo[1,5-a]pyrazin-4(5H)-one]		-0.54	76.5	4.45	5920	1330
Cc1cccc(NCc2cc3n(n2)[C@H](C)CN(c2ccc(F)cc2)C3=O)c1 [Compound 50, (R)-5-(4-fluorophenyl)-7-methyl-2-((m-tolylamino)methyl)-6,7-dihydropyrazolo[1,5-a]pyrazin-4(5H)-one]	3050	0.09		>9.8	> 30000	
Cc1cccc(NCc2cc3n(n2)[C@@H](C)CN(c2ccc(F)cc2)C3=O)c1 [Compound 51, (S)-5-(4-fluorophenyl)-7-methyl-2-((m-tolylamino)methyl)-6,7-dihydropyrazolo[1,5-a]pyrazin-4(5H)-one]	3010	3.21	86.2	2.53	7610	
COc1cccc(NCc2cc3n(n2)[C@H](C)CN(c2ccc(F)cc2)C3=O)c1 [Compound 52, (R)-5-(4-fluorophenyl)-2-(((3-methoxyphenyl)amino)methyl)-7-methyl-6,7-dihydropyrazolo[1,5-a]pyrazin-4(5H)-one]	2720	4.06		>11	> 30000	
COc1cccc(NCc2cc3n(n2)[C@@H](C)CN(c2ccc(F)cc2)C3=O)c1 [Compound 53, (S)-5-(4-fluorophenyl)-2-(((3-methoxyphenyl)amino)methyl)-7-methyl-6,7-dihydropyrazolo[1,5-a]pyrazin-4(5H)-one]	10000	8.62		>3.0	> 30000	
